According to patent US9676758B2, “1-heteroaryl-indoline-4-carboxamides as modulators of GPR52 useful for the treatment or prevention of disorders related thereto” (Arena Pharmaceuticals, Inc., priority 2015, dated 2017):

Legend:
male Sprague Dawley rats = experiment: Plasma prolactin levels in rats (ELISA); assay type: in vivo, rat
Protocol: Another unwanted side effect of certain antipsychotics is hyperprolactinemia. To examine prolactin levels following the administration of a GPR52 agonist, male Sprague Dawley rats (Harlan Laboratories, San Diego, Calif.) were single-housed, handled, and moved to a private housing room one week prior to testing. Rats were individually handled and sham dosed P.O. for four days prior to testing. For an assessment of haloperidol (0.1 and 1 mg/kg P.O.) and Compound 13 (1, 10, and 100 mg/kg P.O.) on basal prolactin release, rats were dosed with acidic 20% HP-β-cyclodextrin (HBCD) or compound at 3 mL/kg P.O. in their housing room 60 minutes prior to harvest. For interaction studies, rats were dosed with 20% HBCD or Compound 13 (10 mg/kg P.O.) 90 minutes prior to harvest, and additionally with 20% HBCD vehicle or haloperidol (0.3 and 1 mg/kg P.O.) 60 minutes prior to harvest. Rats were individually taken to the harvest room, and trunk blood was collected into 4 mL EDTA tubes following live decapitation. Samples were stored on wet ice until collection was complete, then spun in a cooling centrifuge at 2400 rpm for 20 minutes. Plasma was collected and frozen for subsequent analysis using a Rat Prolactin ELISA kit (ALPCO Diagnostics: Cat#55-PRLRT-E01).
Briefly, frozen plasma was thawed on ice and mixed prior to initiation of the ELISA. Twenty-five microliters of sample plasma along with serially diluted standards (lyophilized purified rat prolactin diluted with rat prolactin calibrator/sample diluent), and calibrator/sample diluent used as a blank were placed in a 96-well plate provided with the ELISA kit. Samples, blank, and standards were measured in duplicate. […] Fifty microliters of stop solution (2M hydrochloric acid) was added to the wells prior to reading on a 96-well plate reader (SpectraMax® 340PC; Molecular Devices, Sunnyvale, Calif.) at […]. The quantity of prolactin in each sample was calculated using a standard curve.

male 129Sv/Ev mice = experiment: Prepulse inhibition of the startle response in mice; assay type: in vivo, mouse; conditions: mice with relatively low PPI; Compound 13 10 mg/kg P.O.; FIG. 25A
Protocol: Prepulse inhibition testing was conducted in enclosed startle chambers (Kinder Scientific StartleMonitor System, Kinder Scientific, Poway, Calif.) in which animals were placed into restrainers secured onto startle-sensing plates. A constant background white noise of 65 dB was audible in the chambers throughout testing. […]
For each animal, mean startle amplitude for each trial type during the 35-trial block was calculated, and percent prepulse inhibition (% PPI) for each prepulse intensity was calculated as the percent decrease in the mean startle amplitude in response to a given prepulse and 120 dB startle stimulus relative to the mean startle amplitude in response to the 120 dB startle stimulus alone. The % PPI was then calculated for each animal as the mean % PPI across all four prepulse intensities. […]

male C57/BL6 mice = experiment: Mouse basal locomotor activity; assay type: in vivo; conditions: po
Protocol: To measure basal locomotor activity, male C57/BL6 mice (8-16 weeks) (Jackson Laboratories, Sacramento, Calif.) were transferred in home cages to the testing room approximately 60 minutes prior to testing. Approximately 15 minutes after arrival in the testing room, a dark cycle commenced, with lights turning off and infrared lights turning on for experimenter visibility. Thirty minutes after the lights were turned off, animals were individually weighed and administered either vehicle (20% hydroxypropyl-β-cyclodextrin) Compound 13 (1, 2, 5, 10, or 20 mg/kg P.O.), or another GPR52 agonist (10 mg/kg P.O.) and returned to home cages. Fifteen minutes later, mice were placed into locomotor cages and activity was recorded for 60 minutes.

SMILES: O=C(NCCO)c1cccc2c1CCN2c1cc(Cc2cccc(C(F)(F)F)c2)ccn1 [Compound 13, N-(2-Hydroxyethyl)-1-(4-(3-(trifluoromethyl)benzyl)pyridin-2-yl)indoline-4-carboxamide]
- haloperidol-induced increase in prolactin levels (male Sprague Dawley rats; Compound 13 10 mg/kg P.O., at a low dose of haloperidol, FIG. 28B): reversed
- prolactin levels (male Sprague Dawley rats; basal prolactin release, haloperidol 0.1 and 1 mg/kg P.O., Compound 13 1, 10, and 100 mg/kg P.O., FIG. 28A): decreased
- basal % PPI in 'poor performers' (male 129Sv/Ev mice): increased
- inhibition at 10 mg/kg (male C57/BL6 mice; 10 mg/kg P.O.): 70%
- ED50 (male C57/BL6 mice; 1 h, P.O., activity recorded for 60 minutes, read-out: ED50 (% Inhibition in Mouse Basal Locomotor Activity)): 2.7 mg/kg
